# According to US8993566B2, “Quinoline compound composing 1,2,4-triazine-dione and use thereof” (Wuhan Shengyun Biopharma Co., Ltd., priority 2012, dated 2015):
# Key:
# [1] = target: T1, c-Met kinase (His-tagged recombinant human Met (amino acids 974-end)) (Homo sapiens, UniProt P08581); experiment: c-Met Enzyme Activity Inhibition Assay (ELISA); type: biochemical; conditions: 50 pM c-Met, 5 μM ATP, room temperature 20 min
# T1 construct: His-tagged recombinant human Met (amino acids 974-end); His
# T1 sequence (P08581 956-1390): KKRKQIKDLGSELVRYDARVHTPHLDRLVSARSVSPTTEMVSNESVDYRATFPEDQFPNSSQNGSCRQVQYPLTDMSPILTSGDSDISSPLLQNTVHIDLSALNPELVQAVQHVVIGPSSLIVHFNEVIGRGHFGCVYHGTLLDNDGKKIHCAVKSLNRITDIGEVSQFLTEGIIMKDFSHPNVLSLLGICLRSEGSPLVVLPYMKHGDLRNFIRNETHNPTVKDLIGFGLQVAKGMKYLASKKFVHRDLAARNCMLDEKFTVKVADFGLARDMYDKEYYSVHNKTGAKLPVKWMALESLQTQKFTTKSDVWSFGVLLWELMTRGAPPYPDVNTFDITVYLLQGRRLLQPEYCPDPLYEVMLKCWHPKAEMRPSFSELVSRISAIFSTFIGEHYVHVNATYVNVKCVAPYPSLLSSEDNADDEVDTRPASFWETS
# Experimental: c-Met Enzyme Activity Inhibition Assay
# The assay for the determination of c-Met kinase activity is based on an enzyme linked immunosorbant assay (ELISA). A compound of Formula I, 50 pM c-Met (His-tagged recombinant human Met (amino acids 974-end), expressed by baculovirus), and 5 μM ATP in an assay buffer (25 mM MOPS, pH 7.4, 5 mM MgCl2, […], 100 μM sodium orthovanadate, 0.01% Triton X-100, 1 mM DTT, final DMSO concentration 1% (v/v)) were incubated on a plate coated with 0.25 mg/mL POT at room temperature for 20 min. The reaction mixture was removed by washing and the phosphorylated polymer substrate was detected with 0.2 μg/mL phosphotyrosine specific monoclonal antibody (PY20) conjugated to horseradish peroxidase (HRP). After the addition of 1M phosphoric acid to stop the development, the chromogenic substrate (TMB) color was quantitated by spectrophotometry at 450 nm.
# [2] = test system: human hepatoma carcinoma cell line SMMC-7721; experiment: In vitro anti-tumor cell activity (MTT), SMMC-7721; type: cell-based; conditions: SMMC-7721 cells, MTT, 72 h, Bliss method
# Experimental: (§1) The digested cell solution was poured into a centrifuge tube, to which a culture media was added to stop the digestion. The centrifuge tube was centrifuged at 800 r/min for 10 min, the supernatant was removed gently and then 5 mL of the culture media was added. The cells were pipetted and mixed homogeneously. 10 μL cell suspension was taken into a cell counting plate for counting, wherein the cell concentration was adjusted to 10^4 cells/well. To each well of a 96-well plate, except for A1 well as blank control, was added 100 μL of the cell suspension. The 96-well plate was placed in an incubator and cultivated for 24 h. […] The 96-well plate was placed in an incubator and cultivated for 72 h. (3) The culture media containing the compounds in the 96-well plate was removed, and the cells were washed with phosphate buffered solution (PBS) twice. To each well was added 100 μL MTT (tetrazole) (0.5 mg/mL), after placing the plate in an incubator to incubate for 4 h, the MTT solution was removed and 100 μL dimethyl sulfoxide was added. The reaction product of survival cells with MTT, i.e. formazan, was dissolved completely by oscillation on a magnetic oscillator, and then placed into a microplate reader to measure the results, and the IC50 values of compounds could be deduced by Bliss method.
# [3] = test system: human gastric cancer cell MKN-45; experiment: In vitro anti-tumor cell activity (MTT), MKN-45; type: cell-based; conditions: MKN-45 cells, MTT, 72 h, Bliss method
# Experimental: as §1
# [4] = test system: human nonsmall-cell lung cancer cell H460; experiment: In vitro anti-tumor cell activity (MTT), H460; type: cell-based; conditions: H460 cells, MTT, 72 h, Bliss method
# Experimental: as §1
# [5] = test system: human colon cancer cell HT-29; experiment: In vitro anti-tumor cell activity (MTT), HT-29; type: cell-based; conditions: HT-29 cells, MTT, 72 h, Bliss method
# Experimental: as §1
substance,measurement,setting,value
"N-[3-fluoro-4-[6-methoxy-7-[3-(4-methyl-1-piperazinyl)propyloxy]quinolin]-4-oxy]phenyl]-2-(3,4-difluorophenyl)-4-benzyl]-3,5-dicarbonyl-2,3,4,5-tetrahydro-1,2,4-triazine-6-carboxamide [Example 45]",IC50 for inhibiting c-Met kinase,[1],2.72 µg/mL
same,SMMC-7721 IC50,[2],1.1 µg/mL
same,MKN-45 IC50,[3],0.05 µg/mL
same,H460 IC50,[4],0.34 µg/mL
same,HT-29 IC50,[5],0.28 µg/mL
"N-[3-fluoro-4-[6-methoxy-7-[3-(4-methyl-1-piperazinyl)propyloxy]quinolin]-4-oxy]phenyl]-2-(3-trifluoromethylphenyl)-4-benzyl-3,5-dicarbonyl-2,3,4,5-tetrahydro-1,2,4-triazine-6-carboxamide [Example 47]",IC50 for inhibiting c-Met kinase,[1],5.92 µg/mL
same,SMMC-7721 IC50,[2],3.7 µg/mL
same,MKN-45 IC50,[3],0.4 µg/mL
same,H460 IC50,[4],1.1 µg/mL
same,HT-29 IC50,[5],0.09 µg/mL
"N-[3-fluoro-4-[6-methoxy-7-[3-(4-methyl-1-piperidinyl)propyloxy]quinolin-4-oxy]phenyl]-2-(3-trifluoromethylphenyl)-4-methyl-3,5-dicarbonyl-2,3,4,5-tetrahydro-1,2,4-triazine-6-carboxamide [Example 24]",IC50 for inhibiting c-Met kinase,[1],0.18 µg/mL
same,SMMC-7721 IC50,[2],0.61 µg/mL
same,MKN-45 IC50,[3],0.093 µg/mL
same,H460 IC50,[4],0.28 µg/mL
same,HT-29 IC50,[5],0.5 µg/mL
"N-[3-fluoro-4-[6-methoxy-7-[3-(4-methyl-1-piperidinyl)propyloxy]quinolin-4-oxy]phenyl]-2-(4-methylphenyl)-4-methyl-3,5-dicarbonyl-2,3,4,5-tetrahydro-1,2,4-triazine-6-carboxamide [Example 14]",IC50 for inhibiting c-Met kinase,[1],0.088 µg/mL
same,SMMC-7721 IC50,[2],0.88 µg/mL
same,MKN-45 IC50,[3],2.1 µg/mL
same,H460 IC50,[4],0.15 µg/mL
same,HT-29 IC50,[5],0.11 µg/mL
"N-[3-fluoro-4-[6-methoxy-7-[3-(4-methyl-1-piperidinyl)propyloxy]quinolin-4-oxy]phenyl]-2-phenyl-4-methyl-3,5-dioxo-2,3,4,5-tetrahydro-1,2,4-triazine-6-carboxamide [Example 4]",IC50 for inhibiting c-Met kinase,[1],0.63 µg/mL
same,SMMC-7721 IC50,[2],0.071 µg/mL
same,MKN-45 IC50,[3],0.053 µg/mL
same,H460 IC50,[4],0.087 µg/mL
same,HT-29 IC50,[5],0.13 µg/mL
"N-[3-fluoro-4-[6-methoxy-7-[3-(4-morpholinyl)propyloxy]quinolin-4-oxy]phenyl]-2-(2-fluorophenyl)-4-methyl-3,5-dicarbonyl-2,3,4,5-tetrahydro-1,2,4-triazine-6-carboxamide [Example 23]",IC50 for inhibiting c-Met kinase,[1],0.82 µg/mL
same,SMMC-7721 IC50,[2],0.44 µg/mL
same,MKN-45 IC50,[3],0.0028 µg/mL
same,H460 IC50,[4],0.57 µg/mL
same,HT-29 IC50,[5],0.35 µg/mL
"N-[3-fluoro-4-[7-methoxy-6-[3-(1-piperidinyl)propyloxy]quinolin-4-oxy]phenyl]-2-(2-trifluoromethylphenyl)-4-allyl-3,5-dicarbonyl-2,3,4,5-tetrahydro-1,2,4-triazine-6-carboxamide [Example 37]",IC50 for inhibiting c-Met kinase,[1],3.7 µg/mL
same,SMMC-7721 IC50,[2],2.3 µg/mL
same,MKN-45 IC50,[3],0.12 µg/mL
same,H460 IC50,[4],1.7 µg/mL
same,HT-29 IC50,[5],0.88 µg/mL
"N-[3-fluoro-4-[7-methoxy-6-[3-(1-pyrrolidyl)propyloxy]quinolin-4-oxy]phenyl]-2-(2-trifluoromethylphenyl)-4-butyl-3,5-dicarbonyl-2,3,4,5-tetrahydro-1,2,4-triazine-6-carboxamide [Example 35]",IC50 for inhibiting c-Met kinase,[1],0.03 µg/mL
same,SMMC-7721 IC50,[2],0.31 µg/mL
same,MKN-45 IC50,[3],0.005 µg/mL
same,H460 IC50,[4],0.12 µg/mL
same,HT-29 IC50,[5],0.079 µg/mL
"N-[3-fluoro-4-[7-methoxy-6-[3-(1-pyrrolidyl)propyloxy]quinolin-4-oxy]phenyl]-2-(3-fluorophenyl)-4-butyl-3,5-dioxo-2,3,4,5-tetrahydro-1,2,4-triazine-6-carboxamide [Example 30]",IC50 for inhibiting c-Met kinase,[1],0.058 µg/mL
same,SMMC-7721 IC50,[2],0.46 µg/mL
same,MKN-45 IC50,[3],0.043 µg/mL
same,H460 IC50,[4],0.18 µg/mL
same,HT-29 IC50,[5],0.11 µg/mL
"N-[3-fluoro-4-[7-methoxy-6-[3-(4-methyl-1-piperidinyl)propyloxy]quinolin-4-oxy]phenyl]-2-(2-trifluoromethylphenyl)-4-allyl-3,5-dioxo-2,3,4,5-tetrahydro-1,2,4-triazine-6-carboxamide [Example 36]",IC50 for inhibiting c-Met kinase,[1],1.1 µg/mL
same,SMMC-7721 IC50,[2],2.4 µg/mL
same,MKN-45 IC50,[3],0.21 µg/mL
same,H460 IC50,[4],1.7 µg/mL
same,HT-29 IC50,[5],0.43 µg/mL
"N-[3-fluoro-4-[7-methoxy-6-[3-(4-methyl-1-piperidinyl)propyloxy]quinolin-4-oxy]phenyl]-2-(2-trifluoromethylphenyl)-4-butyl-3,5-dicarbonyl-2,3,4,5-tetrahydro-1,2,4-triazine-6-carboxamide [Example 33]",IC50 for inhibiting c-Met kinase,[1],0.27 µg/mL
same,SMMC-7721 IC50,[2],0.43 µg/mL
same,MKN-45 IC50,[3],0.09 µg/mL
same,H460 IC50,[4],0.15 µg/mL
same,HT-29 IC50,[5],0.18 µg/mL
"N-[3-fluoro-4-[7-methoxy-6-[3-(4-methyl-1-piperidinyl)propyloxy]quinolin-4-oxy]phenyl]-2-phenyl-4-butyl-3,5-dioxo-2,3,4,5-tetrahydro-1,2,4-triazine-6-carboxamide [Example 28]",IC50 for inhibiting c-Met kinase,[1],0.31 µg/mL
same,SMMC-7721 IC50,[2],0.44 µg/mL
same,MKN-45 IC50,[3],0.077 µg/mL
same,H460 IC50,[4],0.25 µg/mL
same,HT-29 IC50,[5],0.31 µg/mL
"N-[3-fluoro-4-[7-methoxy-6-[3-(4-morpholinyl)propyloxy]quinolin-4-oxy]phenyl]-2-(2-fluorophenyl)-4-butyl-3,5-dioxo-2,3,4,5-tetrahydro-1,2,4-triazine-6-carboxamide [Example 29]",IC50 for inhibiting c-Met kinase,[1],0.61 µg/mL
same,SMMC-7721 IC50,[2],0.014 µg/mL
same,MKN-45 IC50,[3],0.0009 µg/mL
same,H460 IC50,[4],0.0056 µg/mL
same,HT-29 IC50,[5],0.12 µg/mL
"N-[3-fluoro-4-[7-methoxy-6-[3-(4-morpholinyl)propyloxy]quinolin-4-oxy]phenyl]-2-(3-trifluoromethylphenyl)-4-butyl-3,5-dicarbonyl-2,3,4,5-tetrahydro-1,2,4-triazine-6-carboxamide [Example 34]",IC50 for inhibiting c-Met kinase,[1],0.017 µg/mL
same,SMMC-7721 IC50,[2],0.18 µg/mL
same,MKN-45 IC50,[3],0.013 µg/mL
same,H460 IC50,[4],0.028 µg/mL
same,HT-29 IC50,[5],0.11 µg/mL
